The source of these data is US20140303216A1, “COMPOSITIONS AND METHODS FOR INDUCING DISRUPTION OF BLOOD VASCULATURE AND FOR REDUCING ANGIOGENESIS” (BOARD OF REGENTS, THE UNIVERSITY OF TEXAS SYSTEM, priority 2011, published 2014).

Data set [1] concerns developing Xenopus embryos. Description: Xenopus embryo angiogenesis, in situ hybridization for erg/apinr and kdr:GFP imaging. The format is in vivo, Xenopus laevis. The settings on record: for anti-angiogenic activity of other benzimidazoles: Xenopus in vivo, at dosages at which TBZ reduces angiogenesis (FIG. 14). An excerpt:
(§1) Female adult Xenopus were ovulated by injections of human chorionic gonadotropin, and eggs were fertilized in vitro and dejellied in 3% cysteine (pH 7.9) and subsequently reared in ⅓×Marc's modified Ringer's (MMR) solution. For microinjections, embryos were placed in a solution of 2% Ficoll in ⅓×MMR solution, injected using forceps and an Oxford universal manipulator, reared in 2% Ficoll in ⅓×MMR to stage 9, then washed and reared in ⅓×MMR solution alone. For bilateral rab11b knock-down experiments, the posterior cardinal vein and intersomitic veins were targeted by injecting Morpholino antisense oligonucleotides (MOs) into the two ventral cells equatorially at the four-cell stage. For unilateral knockdown, only one ventral cell was injected. MOs were injected at 40 ng per blastomere. For the experiments to see the drug effects, embryos were placed in a solution of each chemical dissolved in 1% DMSO diluted in ⅓×MMR during indicated stages. For bead micro-surgery implantation, Affi-Gel Blue Gel beads (Bio-Rad) were soaked with 0.7 mg/ml recombinant mouse VEGF 164 aa (R&D systems) or BSA as a control. Whole-mount in situ hybridization for erg and apinr was performed as described^29.
To analyze action of TBZ precisely on inhibition of angiogenesis and disruption of vasculature, we tested TBZ on two different developmental stages. Xenopus late tailbud embryos at stage 31 were selected for testing the inhibitory effect of TBZ on angiogenesis (FIG. 3A-D). This embryonic stage coincides with the onset of intersomitic vein (ISV) angiogenesis, the process of forming smaller blood vessels by sprouting from pre-existing blood vessels. To observe disruption of existing vasculature, we selected stage 35/36 embryos in which the posterior cardinal vein (PCV) and ISV are already developed (FIG. 15).

In the next data set the test system is Xenopus embryos. Description: Xenopus embryo morphology and developmental defects. The settings on record: FIG. 14; 250 μM for 2-(Chloromethyl)benzimidazole. The format is in vivo.
From the text: as §1, with “1⁄3×Marc's” for “⅓×Marc's”, “1⁄3×MMR” for “⅓×MMR”, “[…] performed as described^29. Immunostaining for Xenopus” for “erg and apinr”, “previously described (Lee et al., 2008). Embryos at stage 35-36 were fixed in 1×MEMFA. 12/101 (1:500; DSHB), and primary antibodies were detected with Alexa Fluor-488 or 555 goat anti-mouse Immunoglobulin (IgG).” for “described^29.”

In another data set the test system is angiogenesis. The settings on record: from the literature; cited from earlier work.
Another data set concerns lung cancer. The settings on record: treatment of lung cancer; cited from earlier work.
The subject of the next data set is HUVECs. Description: HUVEC wound scratch cell migration assay. The format is cell-based, human. The settings on record: added to 250 μM TBZ in 1% DMSO; Y27632 preincubated 2 h. How it is done: HUVECs (1.2×10^5 cells) were seeded into 24-well plate for 24 h, and the monolayers were wounded identically. Then, cells were washed with PBS and treated with EBM-2 containing 1% DMSO or 250 μM TBZ dissolved in 1% DMSO with combination of Y27632 or GGPP (Sigma). In the case of Y27632 treatment, cells were preincubated for 2 h before wounding. Cells were photographed at time zero and after 15 h, and the ratios of cell free area [(0 h-15 h)/0 h] were calculated.

On to `O=C(O)c1cccc2[nH]cnc12` [1H-Benzimidazole-4-carboxylic acid], for which, in data set [1], the “anti-angiogenic activity of other benzimidazoles” value (from here on “anti-angiogenic activity”) is recorded as “not anti-angiogenic”.

For the molecule `ClCc1nc2ccccc2[nH]1` [2-(Chloromethyl)benzimidazole], in data set [1], the “anti-angiogenic activity” value is recorded as “not anti-angiogenic”. In addition, the “developmental (birth) defects in Xenopus” value in the data set with Xenopus embryos is on record as “pleiotropic birth defects”.

Regarding `Nc1nc2ccc(C(=O)c3ccc(F)cc3)cc2[nH]1` [2-Aminoflubendazole], in data set [1], the “anti-angiogenic activity” value is reported as “not anti-angiogenic”.

Regarding `Nc1ccc2[nH]c(C(F)(F)F)nc2c1` [5-Amino-2-(trifluoromethyl)benzimidazole], the “anti-angiogenic activity” value in data set [1] is listed as “not anti-angiogenic”.

In the case of `Clc1ccc2nc(C(Cl)(Cl)Cl)[nH]c2c1` [5-Chloro-2-(trichloromethyl)benzimidazole], in data set [1], the “anti-angiogenic activity” value is listed as “not anti-angiogenic”.

As to `O=c1[nH]cc(F)c(=O)[nH]1` [5-fluorouracil], the “Known effects on angiogenesis” value in the data set on angiogenesis is “Inhibitor^†”.

With `Cc1ccc2c(=O)c3cccc(CC(=O)O)c3oc2c1C` [ASA404], the “efficacy in Phase III clinical trial” value with lung cancer is “failed to show efficacy”.

With `c1ccc2[nH]cnc2c1` [Benzimidazole], in data set [1], the “anti-angiogenic activity” value was “not anti-angiogenic”. Further, in data set [1] (doses up to 1 mM), the “activity in reducing angiogenesis” value was “inactive”.

Take `O=S(=O)([O-])[O-].[Cu+2]` [CuSO4]: the “Known effects on angiogenesis” value in the data set on angiogenesis is recorded as “Activators^‡”.

`CC(C)=CCC/C(C)=C/CC/C(C)=C/CC/C(C)=C/COP(=O)(O)OP(=O)(O)O` [GGPP, geranyl-geranyl pyrophosphate]: the “reversal of TBZ-impeded HUVEC migration by added compound” value in the data set on HUVECs is recorded as “did not reverse”.

In the case of `COc1c(C)c2c(c(O)c1C/C=C(\C)CCC(=O)O)C(=O)OC2` [Mycophenolic acid], the “Known effects on angiogenesis” value with angiogenesis is reported as “Inhibitor*”.

As for `[N]=O` [Nitric oxide], the “Known effects on angiogenesis” value with angiogenesis was “Activator^#”.

Take `C[C@@H](N)[C@H]1CC[C@H](C(=O)Nc2ccncc2)CC1` [Y27632]: the “reversal of TBZ-impeded HUVEC migration by added compound” value with HUVECs was “significant and dose-dependent rescue”.

Consider `CC[C@H](C)C(=O)O[C@H]1C[C@@H](C)C=C2C=C[C@H](C)[C@H](CC[C@@H]3C[C@@H](O)CC(=O)O3)[C@H]21` [lovastatin], for which the “Known effects on angiogenesis” value with angiogenesis is listed as “inhibit angiogenesis”.
